Experiments:
[1] = for viscosity: 100 kPa, Falling or rolling sphere viscometry; for viscosity / speed of sound / mass density: Liquid; for speed of sound / mass density: 101 kPa; for speed of sound: Sing-around technique in a fixed-path interferometer; for mass density: Vibrating tube method; for surface tension liquid-gas: 294.4 K, Pendant drop shape
[2] = xn = mol fraction of the nth substance listed; conditions: x2 = 0; for viscosity: 100 kPa, Falling or rolling sphere viscometry; for viscosity / speed of sound / mass density: Liquid; for speed of sound / mass density: 101 kPa; for speed of sound: Sing-around technique in a fixed-path interferometer; for mass density: Vibrating tube method

CC(C)CC(C)(C)C [2,2,4-trimethylpentane]
[1]
Conditions | mass density [kg/m3] | speed of sound [m/s] | viscosity [mPa·s]
293.15 K | 691.84 | 1103.2 | 0.501
298.15 K | 687.7 | 1082 | 0.473
303.15 K | 683.59 | 1061.4 | 0.447
308.15 K | 679.4 | 1040.4 | 0.423
313.15 K | 675.23 | 1020 | –
318.15 K | 670.98 | 999.3 | 0.38
323.15 K | 666.75 | 979.2 | 0.361
328.15 K | 662.44 | 958.7 | 0.343
333.15 K | 658.16 | 938.6 | 0.326
338.15 K | 653.8 | 918.7 | –
343.15 K | 649.4 | 899 | –

Conditions | surface tension liquid-gas [mN/m]
[1] | 18.7

CCCCCCC [heptane]
[1]
Conditions | mass density [kg/m3] | speed of sound [m/s] | viscosity [mPa·s]
293.15 K | 683.85 | 1151.7 | 0.41
298.15 K | 679.61 | 1130.1 | 0.389
303.15 K | 675.35 | 1109.1 | 0.368
308.15 K | 671.05 | 1087.5 | 0.349
313.15 K | 666.73 | 1066.6 | –
318.15 K | 662.38 | 1045.4 | 0.315
323.15 K | 657.99 | 1024.7 | 0.3
328.15 K | 653.57 | 1003.6 | 0.284
333.15 K | 649.11 | 983 | 0.271
338.15 K | 644.6 | 962.3 | –

Conditions | surface tension liquid-gas [mN/m]
[1] | 20.3

CCCCCCC [heptane] + CC(C)CC(C)(C)C
[2]
Conditions | mass density [kg/m3] | speed of sound [m/s] | viscosity [mPa·s]
293.15 K | 683.85 | 1151.7 | 0.41
298.15 K | 679.61 | 1130.1 | 0.389
303.15 K | 675.35 | 1109.1 | 0.368
308.15 K | 671.05 | 1087.5 | 0.349
313.15 K | 666.73 | 1066.6 | –
318.15 K | 662.38 | 1045.4 | 0.315
323.15 K | 657.99 | 1024.7 | 0.3
328.15 K | 653.57 | 1003.6 | 0.284
333.15 K | 649.11 | 983 | 0.271
338.15 K | 644.6 | 962.3 | –

Conditions | surface tension liquid-gas [mN/m]
[2], 294.4 K, Pendant drop shape | 20.3
